Source: ChEMBL document CHEMBL3991601, “The target landscape of clinical kinase drugs” (Science, 2017)
The source made the active and inactive calls. Cut-off read from the data, not from the text of the source, for most assays here: actives have a measured Kd and inactives only a lower limit.

Assays:
[1] = target: Cyclin-dependent kinase 6 (Homo sapiens, UniProt Q00534)
[2] = target: Serine/threonine-protein kinase 16 (Homo sapiens, UniProt O75716)
[3] = target: Serine/threonine-protein kinase 26 (Homo sapiens, UniProt Q9P289)
[4] = target: Guanine nucleotide-binding protein G(i) subunit alpha-2 (Homo sapiens, UniProt P04899)
[5] = target: T1, ADP/ATP translocase 2 (Homo sapiens, UniProt P05141)
T1 sequence (P05141 whole entry): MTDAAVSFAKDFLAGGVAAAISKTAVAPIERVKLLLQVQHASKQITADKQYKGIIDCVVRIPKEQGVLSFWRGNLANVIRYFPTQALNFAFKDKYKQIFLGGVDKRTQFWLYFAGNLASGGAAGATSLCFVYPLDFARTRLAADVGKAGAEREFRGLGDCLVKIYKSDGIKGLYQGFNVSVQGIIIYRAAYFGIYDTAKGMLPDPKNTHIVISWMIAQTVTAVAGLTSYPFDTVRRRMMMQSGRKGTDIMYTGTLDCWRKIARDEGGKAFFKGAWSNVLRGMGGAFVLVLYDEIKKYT

[6] = target: Tyrosine-protein kinase CSK (Homo sapiens, UniProt P41240)
[7] = target: T2, Serine/threonine-protein kinase Nek2 (Homo sapiens, UniProt P51955)
T2 sequence (P51955 whole entry): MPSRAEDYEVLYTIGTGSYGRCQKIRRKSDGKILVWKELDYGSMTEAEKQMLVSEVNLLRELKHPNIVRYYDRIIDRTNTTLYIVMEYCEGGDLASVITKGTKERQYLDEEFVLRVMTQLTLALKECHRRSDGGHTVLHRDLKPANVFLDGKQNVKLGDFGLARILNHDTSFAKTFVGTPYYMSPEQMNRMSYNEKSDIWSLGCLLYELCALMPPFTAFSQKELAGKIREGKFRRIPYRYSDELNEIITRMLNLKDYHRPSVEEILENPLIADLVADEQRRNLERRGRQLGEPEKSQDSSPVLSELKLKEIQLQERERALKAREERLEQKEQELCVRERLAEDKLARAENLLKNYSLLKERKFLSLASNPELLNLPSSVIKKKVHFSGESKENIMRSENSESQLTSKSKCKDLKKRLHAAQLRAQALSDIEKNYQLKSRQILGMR

[8] = target: T3, MAP kinase-activated protein kinase 5 (Homo sapiens, UniProt Q8IW41)
T3 sequence (Q8IW41 whole entry): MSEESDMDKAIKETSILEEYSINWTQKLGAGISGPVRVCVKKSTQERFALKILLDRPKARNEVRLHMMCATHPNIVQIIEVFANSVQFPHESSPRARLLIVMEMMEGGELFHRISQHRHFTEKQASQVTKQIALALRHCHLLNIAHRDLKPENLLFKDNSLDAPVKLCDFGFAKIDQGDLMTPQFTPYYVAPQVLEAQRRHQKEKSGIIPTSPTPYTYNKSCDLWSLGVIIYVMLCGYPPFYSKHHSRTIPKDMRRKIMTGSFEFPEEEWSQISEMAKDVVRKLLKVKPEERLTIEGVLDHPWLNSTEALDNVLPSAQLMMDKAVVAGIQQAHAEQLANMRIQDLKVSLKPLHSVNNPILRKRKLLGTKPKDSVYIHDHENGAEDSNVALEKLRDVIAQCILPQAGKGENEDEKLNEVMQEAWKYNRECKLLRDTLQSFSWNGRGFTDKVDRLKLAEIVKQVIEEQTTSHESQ

[9] = target: T4, Phosphatidylinositol 5-phosphate 4-kinase type-2 gamma (Homo sapiens, UniProt Q8TBX8)
T4 sequence (Q8TBX8 whole entry): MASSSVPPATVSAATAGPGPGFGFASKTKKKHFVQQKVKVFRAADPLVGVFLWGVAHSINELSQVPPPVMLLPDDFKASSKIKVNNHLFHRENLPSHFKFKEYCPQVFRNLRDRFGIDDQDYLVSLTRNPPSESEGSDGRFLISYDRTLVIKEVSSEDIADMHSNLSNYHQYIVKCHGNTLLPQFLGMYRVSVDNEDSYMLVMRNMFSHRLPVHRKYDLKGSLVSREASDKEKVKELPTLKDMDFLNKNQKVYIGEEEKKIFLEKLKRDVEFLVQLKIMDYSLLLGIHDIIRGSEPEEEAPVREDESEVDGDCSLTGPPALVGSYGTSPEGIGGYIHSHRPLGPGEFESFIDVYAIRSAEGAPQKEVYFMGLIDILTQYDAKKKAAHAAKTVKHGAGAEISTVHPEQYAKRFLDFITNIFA

[10] = target: Aurora kinase B (Homo sapiens, UniProt Q96GD4)
[11] = target: Mitogen-activated protein kinase kinase kinase 20 (Homo sapiens, UniProt Q9NYL2)
[12] = target: Tyrosine-protein kinase Fer (Homo sapiens, UniProt P16591)
[13] = target: Maternal embryonic leucine zipper kinase (Homo sapiens, UniProt Q14680)
[14] = target: Tyrosine-protein kinase Fyn (Homo sapiens, UniProt P06241)
Note: in the data inactive means no Kd found up to 30 µM.

Cyclin-dependent kinase 6, sequence (Q00534 whole entry): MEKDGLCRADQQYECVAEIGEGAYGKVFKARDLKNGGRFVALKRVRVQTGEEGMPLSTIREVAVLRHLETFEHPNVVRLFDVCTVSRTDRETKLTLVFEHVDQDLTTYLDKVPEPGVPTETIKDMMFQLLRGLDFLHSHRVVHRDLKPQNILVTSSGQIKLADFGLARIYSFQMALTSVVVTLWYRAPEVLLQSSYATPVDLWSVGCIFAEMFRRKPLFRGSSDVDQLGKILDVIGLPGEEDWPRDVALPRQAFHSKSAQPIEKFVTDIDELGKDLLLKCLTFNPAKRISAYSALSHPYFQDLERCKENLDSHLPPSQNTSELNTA
Tyrosine-protein kinase CSK, sequence (P41240 whole entry): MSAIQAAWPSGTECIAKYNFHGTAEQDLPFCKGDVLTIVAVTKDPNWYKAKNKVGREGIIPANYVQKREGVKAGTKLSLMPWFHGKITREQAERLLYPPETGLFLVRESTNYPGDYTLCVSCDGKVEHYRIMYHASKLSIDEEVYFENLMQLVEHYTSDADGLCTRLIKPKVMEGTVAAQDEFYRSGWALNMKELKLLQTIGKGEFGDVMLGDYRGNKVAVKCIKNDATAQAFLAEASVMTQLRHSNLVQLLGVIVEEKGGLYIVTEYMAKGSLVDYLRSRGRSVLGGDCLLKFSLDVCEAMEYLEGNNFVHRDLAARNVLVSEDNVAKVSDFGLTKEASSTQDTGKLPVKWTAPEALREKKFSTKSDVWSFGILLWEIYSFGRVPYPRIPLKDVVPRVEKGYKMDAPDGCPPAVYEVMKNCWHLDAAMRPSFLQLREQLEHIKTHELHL
Serine/threonine-protein kinase 16, sequence (O75716 whole entry): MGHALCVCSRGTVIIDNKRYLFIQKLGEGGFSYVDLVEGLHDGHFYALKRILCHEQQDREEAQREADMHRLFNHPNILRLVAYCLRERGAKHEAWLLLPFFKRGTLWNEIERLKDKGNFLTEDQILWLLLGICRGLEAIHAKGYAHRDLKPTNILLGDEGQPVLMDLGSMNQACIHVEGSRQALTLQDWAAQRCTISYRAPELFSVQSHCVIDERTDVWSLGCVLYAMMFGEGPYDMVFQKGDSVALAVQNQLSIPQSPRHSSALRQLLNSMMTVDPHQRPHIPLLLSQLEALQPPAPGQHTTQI
Guanine nucleotide-binding protein G(i) subunit alpha-2, sequence (P04899 whole entry): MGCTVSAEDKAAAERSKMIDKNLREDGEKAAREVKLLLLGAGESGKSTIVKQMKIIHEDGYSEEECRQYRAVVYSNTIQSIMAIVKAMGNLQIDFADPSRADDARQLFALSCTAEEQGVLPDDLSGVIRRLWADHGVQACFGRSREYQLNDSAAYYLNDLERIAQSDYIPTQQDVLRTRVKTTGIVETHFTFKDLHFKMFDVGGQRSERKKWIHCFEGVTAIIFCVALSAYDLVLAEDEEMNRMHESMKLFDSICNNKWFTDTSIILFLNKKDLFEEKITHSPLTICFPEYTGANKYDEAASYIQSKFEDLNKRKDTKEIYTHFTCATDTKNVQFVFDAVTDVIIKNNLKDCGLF
Mitogen-activated protein kinase kinase kinase 20, sequence (Q9NYL2 whole entry): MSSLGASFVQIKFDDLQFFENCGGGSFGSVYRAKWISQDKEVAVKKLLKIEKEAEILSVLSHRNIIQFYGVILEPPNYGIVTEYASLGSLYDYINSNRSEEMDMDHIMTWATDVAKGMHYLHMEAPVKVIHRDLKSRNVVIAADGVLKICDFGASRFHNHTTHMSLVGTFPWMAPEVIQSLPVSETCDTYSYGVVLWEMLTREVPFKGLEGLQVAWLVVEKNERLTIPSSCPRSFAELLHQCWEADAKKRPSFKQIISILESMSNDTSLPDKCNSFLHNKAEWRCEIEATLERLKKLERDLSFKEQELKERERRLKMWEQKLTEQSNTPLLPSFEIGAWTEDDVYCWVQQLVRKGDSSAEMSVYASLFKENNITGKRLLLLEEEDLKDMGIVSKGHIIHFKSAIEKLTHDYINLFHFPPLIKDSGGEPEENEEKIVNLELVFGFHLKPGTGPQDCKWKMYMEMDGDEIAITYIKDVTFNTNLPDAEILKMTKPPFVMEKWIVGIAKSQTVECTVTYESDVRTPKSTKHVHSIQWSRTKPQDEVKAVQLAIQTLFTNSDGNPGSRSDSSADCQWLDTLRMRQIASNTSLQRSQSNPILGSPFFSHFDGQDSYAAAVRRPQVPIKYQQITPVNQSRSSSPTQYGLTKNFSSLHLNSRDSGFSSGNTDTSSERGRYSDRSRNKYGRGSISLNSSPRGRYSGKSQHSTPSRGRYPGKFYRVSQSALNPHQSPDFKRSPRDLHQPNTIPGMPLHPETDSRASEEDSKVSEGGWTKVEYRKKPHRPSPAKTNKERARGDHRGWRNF
Tyrosine-protein kinase Fer, sequence (P16591 whole entry): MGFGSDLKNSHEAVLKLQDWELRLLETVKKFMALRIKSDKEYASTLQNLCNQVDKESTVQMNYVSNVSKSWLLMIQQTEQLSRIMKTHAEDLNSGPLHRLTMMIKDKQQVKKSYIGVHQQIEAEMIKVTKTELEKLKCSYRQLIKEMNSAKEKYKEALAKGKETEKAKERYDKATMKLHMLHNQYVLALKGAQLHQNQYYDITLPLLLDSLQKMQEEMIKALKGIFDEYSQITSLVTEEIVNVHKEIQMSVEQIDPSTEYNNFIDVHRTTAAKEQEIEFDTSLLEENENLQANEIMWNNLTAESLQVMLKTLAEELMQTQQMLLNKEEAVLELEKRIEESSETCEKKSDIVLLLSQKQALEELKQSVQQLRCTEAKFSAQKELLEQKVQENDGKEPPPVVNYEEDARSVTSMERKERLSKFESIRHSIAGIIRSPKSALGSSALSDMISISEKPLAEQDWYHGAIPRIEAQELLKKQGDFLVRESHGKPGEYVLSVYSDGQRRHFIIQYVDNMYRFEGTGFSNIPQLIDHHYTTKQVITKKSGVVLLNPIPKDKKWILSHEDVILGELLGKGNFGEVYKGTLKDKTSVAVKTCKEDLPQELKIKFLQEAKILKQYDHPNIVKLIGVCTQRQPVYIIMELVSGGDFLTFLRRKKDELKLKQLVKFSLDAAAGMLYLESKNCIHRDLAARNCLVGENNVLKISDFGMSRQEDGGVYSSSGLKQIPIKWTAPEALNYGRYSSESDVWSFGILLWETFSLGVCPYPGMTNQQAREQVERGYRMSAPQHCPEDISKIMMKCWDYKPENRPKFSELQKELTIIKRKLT
Serine/threonine-protein kinase 26, sequence (Q9P289 whole entry): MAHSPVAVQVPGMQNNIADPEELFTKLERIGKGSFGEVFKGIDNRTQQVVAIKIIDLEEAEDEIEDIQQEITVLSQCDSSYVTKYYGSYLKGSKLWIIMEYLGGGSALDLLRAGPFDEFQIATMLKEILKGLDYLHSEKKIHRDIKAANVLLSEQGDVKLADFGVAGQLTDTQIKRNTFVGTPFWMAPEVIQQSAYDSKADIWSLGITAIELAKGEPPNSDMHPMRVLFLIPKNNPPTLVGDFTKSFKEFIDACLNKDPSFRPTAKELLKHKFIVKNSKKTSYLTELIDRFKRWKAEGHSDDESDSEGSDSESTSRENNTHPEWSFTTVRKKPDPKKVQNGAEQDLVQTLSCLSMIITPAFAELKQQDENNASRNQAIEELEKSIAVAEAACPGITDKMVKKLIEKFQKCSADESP
Aurora kinase B, sequence (Q96GD4 whole entry): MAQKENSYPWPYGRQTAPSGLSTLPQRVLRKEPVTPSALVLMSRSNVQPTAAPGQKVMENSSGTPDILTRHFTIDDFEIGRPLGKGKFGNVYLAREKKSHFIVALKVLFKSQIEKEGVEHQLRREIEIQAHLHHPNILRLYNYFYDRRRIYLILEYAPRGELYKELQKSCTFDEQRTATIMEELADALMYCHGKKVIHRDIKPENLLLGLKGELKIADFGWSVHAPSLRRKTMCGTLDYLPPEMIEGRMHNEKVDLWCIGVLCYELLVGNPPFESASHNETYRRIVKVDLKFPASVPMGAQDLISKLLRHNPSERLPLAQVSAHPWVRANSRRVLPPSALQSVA
Tyrosine-protein kinase Fyn, sequence (P06241 whole entry): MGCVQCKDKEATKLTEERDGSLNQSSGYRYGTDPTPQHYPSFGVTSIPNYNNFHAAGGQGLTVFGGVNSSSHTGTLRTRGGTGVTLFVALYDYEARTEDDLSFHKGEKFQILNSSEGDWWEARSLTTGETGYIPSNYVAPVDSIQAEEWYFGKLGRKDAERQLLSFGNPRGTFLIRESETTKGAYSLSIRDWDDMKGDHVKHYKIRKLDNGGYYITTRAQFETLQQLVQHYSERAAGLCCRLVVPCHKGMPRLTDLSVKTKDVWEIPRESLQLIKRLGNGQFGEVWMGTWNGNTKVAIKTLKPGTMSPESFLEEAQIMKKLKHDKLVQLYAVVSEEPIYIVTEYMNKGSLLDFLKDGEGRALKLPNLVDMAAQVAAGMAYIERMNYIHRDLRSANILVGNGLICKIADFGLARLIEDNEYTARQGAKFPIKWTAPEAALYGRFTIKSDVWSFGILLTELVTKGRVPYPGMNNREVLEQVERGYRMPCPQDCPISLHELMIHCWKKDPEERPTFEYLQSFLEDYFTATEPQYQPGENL

Compound | Kd [1] | Kd [2] | Kd [3] | Kd [4] | Kd [5] | Kd [6] | Kd [7] | Kd [8] | Kd [9] | Kd [10] | Kd [11] | Kd [12] | Kd [13] | Kd [14]
COc1cc(Nc2ncc3c(n2)-c2ccc(Cl)cc2C(c2c(F)cccc2OC)=NC3)ccc1C(=O)O [ALISERTIB] | > 30 µM (inactive) | > 30 µM (inactive) | > 30 µM (inactive) | 0.184 µM | > 30 µM (inactive) | > 30 µM (inactive) | – | – | – | – | – | – | – | –
O=C(Nc1c[nH]nc1-c1nc2cc(CN3CCOCC3)ccc2[nH]1)NC1CC1 [AT-9283] | – | 1.28 µM (active) | > 30 µM (inactive) | > 30 µM (inactive) | > 30 µM (inactive) | – | > 30 µM (inactive) | 0.589 µM (active) | > 30 µM (inactive) | 0.017 µM (active) | > 30 µM (inactive) | – | – | –
CNC(=O)c1ccccc1Sc1ccc2c(/C=C/c3ccccn3)n[nH]c2c1 [AXITINIB] | > 30 µM (inactive) | – | – | > 30 µM (inactive) | > 30 µM (inactive) | – | – | – | – | – | – | – | – | –
CC(C)(C)c1nc(-c2cccc(NS(=O)(=O)c3c(F)cccc3F)c2F)c(-c2ccnc(N)n2)s1 [DABRAFENIB] | 0.318 µM (active) | > 30 µM (inactive) | > 30 µM (inactive) | > 30 µM (inactive) | > 30 µM (inactive) | 0.851 µM (active) | – | – | > 30 µM (inactive) | > 30 µM (inactive) | 0.184 µM (active) | > 30 µM (inactive) | 1.82 µM (active) | –
C[C@@H](Oc1cc(-n2cnc3ccc(CN4CCN(C)CC4)cc32)sc1C(N)=O)c1ccccc1C(F)(F)F [GSK-461364] | > 30 µM (inactive) | – | – | > 30 µM (inactive) | > 30 µM (inactive) | – | – | – | – | – | – | – | – | –
Cc1[nH]c(/C=C2\C(=O)Nc3ccccc32)c(C)c1CCC(=O)O [ORANTINIB] | > 30 µM (inactive) | – | > 30 µM (inactive) | > 30 µM (inactive) | > 30 µM (inactive) | > 30 µM (inactive) | – | – | – | – | – | – | – | –
NC(=O)c1c(OCc2c(F)cc(Br)cc2F)nsc1NC(=O)NCCCCN1CCCC1 [OSI-632] | > 30 µM (inactive) | > 30 µM (inactive) | > 30 µM (inactive) | > 30 µM (inactive) | > 30 µM (inactive) | > 30 µM (inactive) | – | – | – | – | – | – | – | –
CCOc1cc2ncc(C#N)c(Nc3ccc(F)c(Cl)c3)c2cc1NC(=O)/C=C/CN(C)C [PELITINIB] | > 30 µM (inactive) | > 30 µM (inactive) | > 30 µM (inactive) | > 30 µM (inactive) | > 30 µM (inactive) | > 30 µM (inactive) | – | > 30 µM (inactive) | > 30 µM (inactive) | > 30 µM (inactive) | 0.875 µM (active) | > 30 µM (inactive) | > 30 µM (inactive) | –
O=C(NOCCO)c1cc(CN2OCCCC2=O)c(F)c(F)c1Nc1ccc(I)cc1F [RO-4987655] | > 30 µM (inactive) | – | – | > 30 µM (inactive) | > 30 µM (inactive) | – | – | – | – | – | – | – | – | –
N#CC[C@H](C1CCCC1)n1cc(-c2ncnc3[nH]ccc23)cn1 [RUXOLITINIB] | > 30 µM (inactive) | – | – | > 30 µM (inactive) | > 30 µM (inactive) | – | – | – | – | – | – | – | – | –
CN1CCN(CCOc2cc(OC3CCOCC3)c3c(Nc4c(Cl)ccc5c4OCO5)ncnc3c2)CC1 [SARACATINIB] | > 30 µM (inactive) | > 30 µM (inactive) | > 30 µM (inactive) | > 30 µM (inactive) | > 30 µM (inactive) | 39.6 µM (active) | > 30 µM (inactive) | > 30 µM (inactive) | > 30 µM (inactive) | > 30 µM (inactive) | 2.98 µM (active) | > 30 µM (inactive) | > 30 µM (inactive) | –
Cn1cc(-c2cnn3c(N)c(Br)c([C@@H]4CCCNC4)nc23)cn1 [SCH-900776] | > 30 µM (inactive) | > 30 µM (inactive) | > 30 µM (inactive) | – | > 30 µM (inactive) | > 30 µM (inactive) | > 30 µM (inactive) | > 30 µM (inactive) | > 30 µM (inactive) | > 30 µM (inactive) | > 30 µM (inactive) | > 30 µM (inactive) | 4.69 µM (active) | > 30 µM (inactive)
CO[C@H]1C[C@@H]2CC[C@@H](C)[C@@](O)(O2)C(=O)C(=O)N2CCCC[C@H]2C(=O)O[C@H]([C@H](C)C[C@@H]2CC[C@@H](O)[C@H](OC)C2)CC(=O)[C@H](C)/C=C(\C)[C@@H](O)[C@@H](OC)C(=O)[C@H](C)C[C@H](C)/C=C/C=C/C=C/1C [SIROLIMUS] | > 30 µM (inactive) | > 30 µM (inactive) | > 30 µM (inactive) | – | > 30 µM (inactive) | > 30 µM (inactive) | > 30 µM (inactive) | > 30 µM (inactive) | > 30 µM (inactive) | > 30 µM (inactive) | > 30 µM (inactive) | > 30 µM (inactive) | > 30 µM (inactive) | > 30 µM (inactive)
O=C(Cc1ccc(-c2ccc(OCCN3CCOCC3)cc2)cn1)NCc1ccccc1 [TIRBANIBULIN] | > 30 µM (inactive) | > 30 µM (inactive) | > 30 µM (inactive) | – | > 30 µM (inactive) | > 30 µM (inactive) | > 30 µM (inactive) | > 30 µM (inactive) | > 30 µM (inactive) | > 30 µM (inactive) | > 30 µM (inactive) | > 30 µM (inactive) | > 30 µM (inactive) | > 30 µM (inactive)
Cc1cc(Nc2ncnc3ccc(NC4=NC(C)(C)CO4)cc23)ccc1Oc1ccn2ncnc2c1 [TUCATINIB] | > 30 µM (inactive) | > 30 µM (inactive) | > 30 µM (inactive) | – | > 30 µM (inactive) | > 30 µM (inactive) | > 30 µM (inactive) | > 30 µM (inactive) | > 30 µM (inactive) | > 30 µM (inactive) | > 30 µM (inactive) | > 30 µM (inactive) | > 30 µM (inactive) | > 30 µM (inactive)
CC(C)c1cc(CNc2nc(Nc3cc(C4CC4)[nH]n3)cc(N3CCN(C)CC3)n2)on1 [XL-228] | > 30 µM (inactive) | > 30 µM (inactive) | > 30 µM (inactive) | – | > 30 µM (inactive) | > 30 µM (inactive) | > 30 µM (inactive) | > 30 µM (inactive) | > 30 µM (inactive) | 0.004 µM (active) | > 30 µM (inactive) | 0.105 µM (active) | > 30 µM (inactive) | 0.023 µM (active)
C[C@@H](N)c1ccc(C(=O)Nc2ccnc3[nH]ccc23)cc1 [Y-39983] | > 30 µM (inactive) | > 30 µM (inactive) | > 30 µM (inactive) | – | > 30 µM (inactive) | > 30 µM (inactive) | > 30 µM (inactive) | > 30 µM (inactive) | > 30 µM (inactive) | > 30 µM (inactive) | > 30 µM (inactive) | > 30 µM (inactive) | > 30 µM (inactive) | > 30 µM (inactive)
